Experimental data: patent publication US20210292304A1 (HINOVA PHARMACEUTICALS INC., priority 2018, published 2021)

Experiments:
CYP2C8 = molecular target: T1, CYP2C8 (Homo sapiens, UniProt P10632); assay: Metabolic stability in recombinant human CYP2C8 metabolic enzyme; assay type: in vitro ADME; details: CYP subtype 2C8, test concentration 2 (M); for half-life at 2 µM: human, recombinant CYP2C8, pH 7.4, read-out: Half-life T1/2
T1 sequence (P10632 1-490): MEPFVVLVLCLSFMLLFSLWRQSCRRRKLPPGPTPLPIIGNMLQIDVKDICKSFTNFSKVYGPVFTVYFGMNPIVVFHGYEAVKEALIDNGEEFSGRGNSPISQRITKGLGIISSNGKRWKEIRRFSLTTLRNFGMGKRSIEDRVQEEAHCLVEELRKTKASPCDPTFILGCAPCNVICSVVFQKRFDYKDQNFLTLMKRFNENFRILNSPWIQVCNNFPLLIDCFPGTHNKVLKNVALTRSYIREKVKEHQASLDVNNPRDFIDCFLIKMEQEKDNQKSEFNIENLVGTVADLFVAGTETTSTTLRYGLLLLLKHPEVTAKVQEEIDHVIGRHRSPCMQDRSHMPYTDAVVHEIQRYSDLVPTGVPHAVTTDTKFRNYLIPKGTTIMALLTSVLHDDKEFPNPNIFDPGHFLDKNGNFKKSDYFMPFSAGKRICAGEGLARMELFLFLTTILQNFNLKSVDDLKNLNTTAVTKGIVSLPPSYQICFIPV
Protocol: 1) Na2HPO4, KH2PO4, and pure water were used to prepare phosphate buffer (100 mM, pH 7.4);
2) Test compound and reference compound were dissolved in acetonitrile to obtain a working solution (200 M);
3) NADPH solution (10 mM) was prepared with NADPH and phosphate buffer (100 mM, pH 7.4);
4) The stock solution of recombinant CYP2C8 enzyme was diluted to […] with phosphate buffer (100 mM, pH 7.4);
5) The working solution of test compound or reference compound Amitriptyline was added to CYP2C8 solution, and the concentration of compound was 2 M, to which was added NADPH solution (10 mM) to initiate a metabolic reaction. 30 L incubation solution of metabolic reaction was collected at 0, 5, 10, 15, 25 minutes, and transferred to a quenching plate to quench with 120 L acetonitrile (including internal standard);
6) The sample was centrifuged at 4° C. for 60 min to precipitate the protein. The supernatant was collected and transferred to a 96-well plate, then diluted one times with pure water, and subjected to LC-MS/MS analysis;
7) The data analysis and calculation were similar to experimental example 2.

Pharmacokinetics in mice = assay type: in vivo; details: ICR, mouse, plasma, 5 mg/kg, po. 5 mpk; for AUC: read-out: Exposure dose AUC; for half-life: read-out: Half life T1/2 (converted); for Cmax: read-out: Peak concentration Cmax; for Tmax: read-out: Peak time Tmax
Source text: 1) Experimental Materials and Instruments: • N,N-Dimethylacetamide (DMA), manufacturer: Sigma; Polyethylene glycol 400 (PEG400), manufacturer: Chengdu Kelon Chemical Reagent Factory; Hydroxypropyl β-cyclodextrin (HP-3-CD), manufacturer: Shanghai Dibai Chemical Technology Co., Ltd.; • HPC LF, manufacturer: Chengdu Yuannuo Tiancheng Technology Co., Ltd.; • Heparin sodium, manufacturer: Chengdu Kelon Chemical Reagent Factory; • Electronic analytical balance, model: SECURA225D-1CN; manufacturer: Sartorius Group, Germany; • Ultrasonic Cleaner, Model: AS10200; Manufacturer: Tianjin Automatic Science Instrument Co., Ltd.; • Pure water system, model: PURELAB Classic; manufacturer: ELGA Instrument Co., Ltd., Britain; • Vortex meter, model: VORTEXI; manufacturer: IKA Group, German; • High-speed refrigerated centrifuge, model: 21R; manufacturer: ThermoFisher Scientific (China) Co., Ltd.; • Electronic balance, model: XY1000-2C; manufacturer: Changzhou Xing Yun Electronic Equipment Co., Ltd.; • HPLC system, model: LC-20AD; manufacturer: SHIMADZU Instrument Company, Japan; • API4000 triple quadrupole mass spectrometer, manufacturer: Applied Biosystem, USA; • LC-20AD HPLC system (SHIMADZU (Shimadzu) Company, Japan); • PhenixWinnolin Pharmacokinetic software (Version 6.3, Certara, USA); • Analytical balance (Sartorius, SECURA225D-1CN); • Experimental animals: ICR mice (Chengdu Dossy Experimental Animal Co., Ltd.)
Group IV: The sample to be tested (1.15 mg) was accurately weighed, to which was first added 0.228 ml DMA to dissolve it, then were successively added 1.139 ml PEG400 and 5.012 ml of 0.1M phosphate buffer. Finally 40% HP-B-CD was added to a final volume of 11.39 ml. The mixture was sonicated, vortexed, and mixed well, to prepare a transparent and clear solution of 0.1 mg/ml. PO group: The sample to be tested (5.06 mg) was accurately weighed, and then 2% HPC LF (containing 0.1% Tween-80) was added to a final volume of 20.04 ml. The mixture was sonicated, vortexed, and mixed, to make a uniform suspension solution of 0.25 mg/ml.
Nine healthy adult ICR mice (three animals for each time point); after fasting overnight (free drinking water), they were administrated by tail vein and gavage, respectively; For the iv group, 5 min, 15 min, 0.5 h, 1 h, 2 h, 4 h, 8 h, 12 h, 24 h after administration, 0.1 ml blood was collected from the submandibular vein, centrifuged at 4° C. for 5 min to separate the plasma, and then it was stored at −20° C. for testing. In the po. group, 0.1 ml blood was collected from the submandibular vein prior to administration and 0.5 h, 1 h, 2 h, 4 h, 6 h, 8 h, 12 h, 24 h after administration, and the processing procedure was the same as that of the intravenous administration group. LC/MS/MS method was established to determine the plasma concentration of the original drug and draw the plasma concentration-time curve. WinNonlin 6.3 software was used to calculate the main pharmacokinetic parameters.

Clearance rate CLint (CYP2C8) [μL/min/pmol CYP450]	Percentage of residual substances after 25 minutes (CYP2C8) [%]	half-life at 2 µM (CYP2C8) [min]	AUC (Pharmacokinetics in mice) [ng·h/mL]	half-life (Pharmacokinetics in mice) [min]	Cmax (Pharmacokinetics in mice) [ng/mL]	Tmax (Pharmacokinetics in mice) [h]	SMILES
0.08	80.87	90.8	21300	162	2300	4	[2H]C([2H])([2H])C([2H])(c1cc(Oc2c(Cl)cc(-n3nc(C#N)c(=O)[nH]c3=O)cc2Cl)n[nH]c1=O)C([2H])([2H])[2H] [Compound 2]
0.07	81.60	96.1	45900	208	7400	4	[2H]c1c(Oc2c(Cl)cc(-n3nc(C#N)c(=O)[nH]c3=O)cc2Cl)n[nH]c(=O)c1C([2H])(C([2H])([2H])[2H])C([2H])([2H])[2H] [Compound 10, 2-(3,5-dichloro-4-((4-deuterio-5-(heptadeuteroisopropyl)-6-oxo-1,6-dihydro-pyridazin3-yl)oxy)phenyl)-3,5-dioxo-2,3,4,5-tetrahydro-1,2,4-triazine-6-carbonitrile]
0.06	85.57	110	44100	282	6500	4	[2H]c1c(Oc2c(Cl)cc(-n3nc(C#N)c(=O)[nH]c3=O)cc2Cl)n[nH]c(=O)c1C(C([2H])([2H])[2H])C([2H])([2H])[2H] [Compound 11, 2-(3,5-dichloro-4-((4-deuterio-5-(1,1,1,3,3,3-hexadeuteropropan-2-yl)-6-oxo-1,6-dihydro-pyridazin-3-yl)oxy)phenyl)-3,5-dioxo-2,3,4,5-tetrahydro-1,2,4-triazine-6-carbonitrile]
